Consider seven compounds from PubChem BioAssay (NCI).

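Assay format: 96-well plates, 48-hour exposure. GI50 = concentration required for 50% inhibition of growth. At the TGI there is no net growth.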

Some test systems named below: RPMI-8226 leukemia; BT-549 breast; SF-268 CNS; OVCAR-3 ovarian; MCF7 breast; IGROV1 ovarian; K-562 leukemia; CAKI-1 renal; LOX IMVI melanoma; MDA-MB-435.
Holding throughout (assay): NCI-60 cell line screen, 48 h

As for `COc1cc2c3c(n(CCCNC(C)(C)CO)c(=O)c2cc1OC)-c1cc2c(cc1C3=O)OCO2`, the GI50 in the assay on RPMI-8226 leukemia was 0.0169 µM; with BT-549 breast, 12.9 µM; in the assay on SF-268 CNS, 3.81 µM; in the assay with OVCAR-3 ovarian, 15.1 µM; in the assay on MCF7 breast, 0.294 µM; with IGROV1 ovarian it was 1.7 µM. Moreover, the GI50 in the assay with K-562 leukemia is 2.82 µM; in the assay on CAKI-1 renal, 0.446 µM; with LOX IMVI melanoma, 0.255 µM; in the assay with MDA-MB-435, 4.52 µM. The TGI was 0.464 µM in the assay on RPMI-8226 leukemia; 39.2 µM with BT-549 breast; 56.6 µM in the assay with SF-268 CNS; 39.8 µM in the assay with OVCAR-3 ovarian; above 50.5 µM in the assay with MCF7 breast; above 100 µM with IGROV1 ovarian. In addition, the TGI is above 55.7 µM in the assay on K-562 leukemia, 23.8 µM in the assay with CAKI-1 renal, 2.06 µM with LOX IMVI melanoma and above 75.5 µM in the assay with MDA-MB-435.

In the case of `CCOC(=O)Cc1csc(Nc2nc(O)c(C3=c4ccccc4=NC3=O)s2)n1`, the GI50 in the assay on RPMI-8226 leukemia is 20.9 µM; in the assay on BT-549 breast, 92.3 µM; in the assay on SF-268 CNS, 34.6 µM; in the assay with OVCAR-3 ovarian, 26.9 µM; with MCF7 breast, 85.5 µM; in the assay with IGROV1 ovarian, 27.2 µM. The GI50 in the assay with K-562 leukemia is 37.2 µM; in the assay with CAKI-1 renal it was 24.3 µM; in the assay with LOX IMVI melanoma, 22.1 µM; in the assay with MDA-MB-435, 40.9 µM. The TGI in the assay on RPMI-8226 leukemia is 53.2 µM; in the assay with BT-549 breast, above 100 µM; in the assay on SF-268 CNS, above 100 µM; in the assay on OVCAR-3 ovarian, 61.5 µM; with MCF7 breast it was above 100 µM; in the assay with IGROV1 ovarian it was 69 µM. Moreover, the TGI in the assay with K-562 leukemia is above 100 µM; with CAKI-1 renal, 57.2 µM; in the assay with LOX IMVI melanoma, 54.2 µM; in the assay with MDA-MB-435, above 100 µM.

With `Cc1cccc2c1NC(=O)[C@@H](NC(=O)[C@H](CCC(F)(F)F)[C@H](CCC(F)(F)F)C(N)=O)N=C2c1cccc(F)c1`, the GI50 in the assay with RPMI-8226 leukemia was above 100 µM; in the assay with BT-549 breast it was 16.2 µM; with SF-268 CNS, 23.2 µM; in the assay with OVCAR-3 ovarian it was 33.3 µM; in the assay with MCF7 breast it was 24.1 µM; with IGROV1 ovarian it was 27.7 µM. Besides, the GI50 is above 100 µM with K-562 leukemia, above 100 µM in the assay on CAKI-1 renal, 64.8 µM in the assay on LOX IMVI melanoma and above 100 µM in the assay on MDA-MB-435. In addition, the TGI in the assay on RPMI-8226 leukemia was above 100 µM; in the assay with BT-549 breast, 66.1 µM; in the assay on SF-268 CNS, 70 µM; in the assay on OVCAR-3 ovarian, above 100 µM; in the assay on MCF7 breast, above 100 µM; in the assay on IGROV1 ovarian it was above 100 µM. Further, the TGI with K-562 leukemia, in the assay on CAKI-1 renal, in the assay with LOX IMVI melanoma and in the assay with MDA-MB-435 was above 100 µM in each case.

Take `CN1CCN(C(=O)OCc2nc3c(N4CCOCC4)nc(-c4ccccc4)nc3n2C)CC1`: the GI50 with RPMI-8226 leukemia is 0.335 µM; in the assay on BT-549 breast it was 1 µM; in the assay on SF-268 CNS it was 1.41 µM; in the assay with OVCAR-3 ovarian, 0.295 µM; in the assay with MCF7 breast it was 0.389 µM; in the assay with IGROV1 ovarian, 0.632 µM. The GI50 was 0.512 µM in the assay with K-562 leukemia, 0.471 µM with CAKI-1 renal, 0.176 µM in the assay on LOX IMVI melanoma and 1.06 µM in the assay on MDA-MB-435. Besides, the TGI came to 1.87 µM with RPMI-8226 leukemia; 2.25 µM in the assay on BT-549 breast; 2.85 µM in the assay with SF-268 CNS; 1.16 µM with OVCAR-3 ovarian; 2.11 µM in the assay with MCF7 breast; 2.03 µM in the assay on IGROV1 ovarian. Moreover, the TGI in the assay on K-562 leukemia amounted to 7.41 µM; in the assay on CAKI-1 renal it was 1.83 µM; in the assay with LOX IMVI melanoma, 0.443 µM; with MDA-MB-435, 2.39 µM.

Turning to `CO[C@@H]1[C@H](N(C)C(=O)c2ccccc2)C[C@@H]2O[C@]1(C)n1c3ccccc3c3c4c(c5c6ccccc6n2c5c31)C(=O)NC4=O`, the GI50 with RPMI-8226 leukemia was above 100 µM; with BT-549 breast, 1.21 µM; in the assay on SF-268 CNS, 0.763 µM; with OVCAR-3 ovarian it was 6.28 µM; with MCF7 breast it was 1.84 µM; in the assay on IGROV1 ovarian it was 0.523 µM. In addition, the GI50 was 11.1 µM with K-562 leukemia, 0.232 µM in the assay on CAKI-1 renal, 0.654 µM in the assay on LOX IMVI melanoma and 0.775 µM in the assay on MDA-MB-435. In addition, the TGI in the assay on RPMI-8226 leukemia, with BT-549 breast, in the assay with SF-268 CNS, in the assay with OVCAR-3 ovarian, with MCF7 breast and in the assay on IGROV1 ovarian was above 100 µM in each case. Also, the TGI with K-562 leukemia was above 100 µM; in the assay on CAKI-1 renal it was 2.66 µM; in the assay with LOX IMVI melanoma, above 100 µM; in the assay with MDA-MB-435, above 100 µM.

In the case of `O=C1/C(=C\c2ccc(Cl)cc2)CN(C(=O)c2ccccc2)C/C1=C\c1ccc(Cl)cc1`, the GI50 was 0.274 µM with RPMI-8226 leukemia; 2.89 µM in the assay with BT-549 breast; 3.74 µM in the assay with SF-268 CNS; 2.43 µM with OVCAR-3 ovarian; 0.437 µM with MCF7 breast; 3.22 µM in the assay with IGROV1 ovarian. In addition, the GI50 in the assay with K-562 leukemia is 1.98 µM; with CAKI-1 renal, 8.45 µM; in the assay with LOX IMVI melanoma, 0.771 µM; with MDA-MB-435, 2.58 µM. The TGI came to 1.36 µM in the assay with RPMI-8226 leukemia; 7.17 µM with BT-549 breast; 17.5 µM with SF-268 CNS; 5.49 µM with OVCAR-3 ovarian; 3.09 µM in the assay on MCF7 breast; 9.78 µM in the assay with IGROV1 ovarian. The TGI is above 100 µM in the assay on K-562 leukemia, above 100 µM in the assay with CAKI-1 renal, 2.26 µM in the assay with LOX IMVI melanoma and 8.04 µM in the assay with MDA-MB-435.

Regarding `O=C(CSc1nc2ccc([N+](=O)[O-])cc2[nH]1)Nc1ccc([N+](=O)[O-])cc1`, the GI50 was 1.27 µM in the assay with RPMI-8226 leukemia; 2.34 µM in the assay on BT-549 breast; 2.72 µM in the assay with SF-268 CNS; 2.05 µM in the assay with OVCAR-3 ovarian; 1.95 µM in the assay on MCF7 breast; 2.71 µM in the assay with IGROV1 ovarian. The GI50 in the assay on K-562 leukemia is 2.49 µM; in the assay on CAKI-1 renal it was 2.08 µM; with LOX IMVI melanoma, 2.75 µM; in the assay on MDA-MB-435 it was 2.66 µM. For the same compound, the TGI in the assay on RPMI-8226 leukemia is above 23.2 µM; with BT-549 breast it was 14.3 µM; in the assay on SF-268 CNS it was 14.5 µM; with OVCAR-3 ovarian, 10.9 µM; in the assay on MCF7 breast it was 8.83 µM; in the assay with IGROV1 ovarian it was 15.2 µM. The TGI is above 100 µM with K-562 leukemia, 7.67 µM in the assay with CAKI-1 renal, 12.2 µM with LOX IMVI melanoma and 12.7 µM in the assay with MDA-MB-435.
